For the experiment, the system named is hippocampal slices from wt and Δ9 mutant (PS-1) animals. The format is cell-based. Conditions: flunitrazepam in the bathing medium; Δ9 mutant slices.

From US6960470B1 (priority 1998, dated 2005) come the findings set out here.

In the case of `CN1C(=O)CN=C(c2ccccc2F)c2cc([N+](=O)[O-])ccc21` [flunitrazepam], the “potentiation in mutants (+FLU) compared with the wt (−FLU)” value is “potentiation to almost the wt levels”.
